# Results reported in patent US20250179061A1 (SIRONAX LTD., priority 2022, published 2025).
# Tested on: HT-29 cells
# Assay: HT-29 necroptosis cell viability assay (TNF-α/SMAC mimetic/zVAD-FMK, CellTiter-Glo)
# Format: cell-based
# Conditions: Homo sapiens, HT-29, HT-29 cells, necroptosis induced by TNF-α/SMAC mimetic/zVAD-FMK, CellTiter-Glo; read-out: Activity (IC50 class)
# Procedure, shortened: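 Necroptosis was triggered by TNF-α (10 ng/ml), SMAC mimetic (6 μM) and zVAD-FMK (10 μM) in serum-free medium during 20 h compound exposure (10 concentrations, threefold steps) of HT-29 cells. IC50 from duplicate dose-responses uses CellTiter-Glo ATP luminescence as viability read-out.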
row,SMILES,IC50
1,"O=c1n(-c2ccc(N3CCOc4ccccc43)cc2)nc(Cl)n1Cc1ccccc1 [Example 681, 4-benzyl-5-chloro-2-(4-(2,3-dihydro-4H-benzo[b][1,4]oxazin-4-yl)phenyl)-2,4-dihydro-3H-1,2,4-triazol-3-one]",100 to 1000 nM
2,"N#CC1CC(n2cccc(Cc3ccc(-n4ncn(Cc5c(F)cccc5F)c4=O)cc3)c2=O)C1 (stereo not shown) [Example 682, 3-(3-(4-(4-(2,6-difluorobenzyl)-5-oxo-4,5-dihydro-1H-1,2,4-triazol-1-yl)benzyl)-2-oxopyridin-1(2H)-yl)cyclobutane-1-carbonitrile]",100 to 1000 nM
3,"COc1ncccc1Cc1ccc(-n2ncn(Cc3c(F)cccc3F)c2=O)cc1 [Example 683, 4-(2,6-difluorobenzyl)-2-(4-((2-methoxypyridin-3-yl)methyl)phenyl)-2,4-dihydro-3H-1,2,4-triazol-3-one]",< 100 nM
4,"N#CC1CC(Oc2ncccc2Cc2ccc(-n3ncn(Cc4c(F)cccc4F)c3=O)cc2)C1 (stereo not shown) [Example 684, 3-((3-(4-(4-(2,6-difluorobenzyl)-5-oxo-4,5-dihydro-1H-1,2,4-triazol-1-yl)benzyl)pyridin-2-yl)oxy)cyclobutane-1-carbonitrile]",100 to 1000 nM
